Each structure is given as a SMILES string. Read-outs that look alike come from different tables or passages of the source.

Broadly, the pA2 is the negative logarithm of the molar antagonist concentration that doubles the agonist concentration needed for the same response.

Test [1] addresses T1, 5-HT M-receptor (Oryctolagus cuniculus, UniProt A0A5F9C9J3).
T1 construct: determining their pA2 values in the isolated rabbit heart; from tissue; host or cells: isolated rabbit heart
T1 sequence (A0A5F9C9J3 1-494): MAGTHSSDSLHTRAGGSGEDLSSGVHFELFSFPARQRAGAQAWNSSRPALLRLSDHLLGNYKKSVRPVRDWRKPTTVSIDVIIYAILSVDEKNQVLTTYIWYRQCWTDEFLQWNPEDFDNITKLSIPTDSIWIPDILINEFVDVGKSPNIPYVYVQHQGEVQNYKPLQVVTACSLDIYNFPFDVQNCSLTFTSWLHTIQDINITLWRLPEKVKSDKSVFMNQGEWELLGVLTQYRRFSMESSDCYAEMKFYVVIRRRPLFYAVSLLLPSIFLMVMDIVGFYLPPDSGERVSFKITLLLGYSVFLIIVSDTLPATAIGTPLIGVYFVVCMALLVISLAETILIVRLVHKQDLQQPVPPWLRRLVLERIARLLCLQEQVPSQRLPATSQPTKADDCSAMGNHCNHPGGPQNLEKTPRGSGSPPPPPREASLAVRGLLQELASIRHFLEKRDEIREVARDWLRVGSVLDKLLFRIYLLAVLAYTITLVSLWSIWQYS
The test is described as follows: pA2 against 5-HT in the isolated rabbit heart. The method, then: The activity of the compounds against 5-HT can be assessed by determining their pA2 values in the isolated rabbit heart as described by Fozard et at Europ. J. Pharmacol. 59, 195-210 (1979). In the method described the molar concentration of antagonist which reduces the effects of twice the ED50 of 5-HT to that of the ED50 in the absence of antagonist is determined. The pA2 value is the negative logarithm of said molar concentrations.

The target of test [2] is T1, 5-HT M-receptor. Conditions: potency as 5-HT M-receptor antagonist; values reported by Fozard et al, Eur. J. Pharmacol. 59(1979) and 49(1978); cited from earlier work.
Where [3] appears, read: potency as 5-HT M-receptor antagonist, tests mentioned in the background section, read-out: pA2 (converted).

As for `COc1cc(C(=O)O[C@@H]2C[C@H]3CC[C@@H](C2)N3C)cc(OC)c1OC` [pseudotropyl-3,4,5-trimethoxybenzoate], the Kb at 5-HT M-receptor [1] (setting [3]) was 2000 nM.
As for `CN1[C@@H]2CC[C@H]1C[C@@H](OC(=O)c1ccccc1)C2` [benzoyltropine], on 5-HT M-receptor [2], the pA2 is 7.2.
With `CN1[C@@H]2CC[C@H]1C[C@H](OC(=O)c1ccccc1)C2` [pseudotropyl benzoate], the pA2 at 5-HT M-receptor [2] is reported as 7.0.
Consider `CN1[C@@H]2CC[C@H]1C[C@H](OC(=O)c1cc(Cl)cc(Cl)c1)C2` [Example 1, Pseudotropyl 3,5-Dichlorobenzoate (i.e. 3,5-Dichlorobenzoic Acid Exo-8-Methyl-8-Azabicyclo[3,2,1]Oct-3-Yl Ester)], for which the Kb at 5-HT M-receptor [1] (isolated rabbit heart, antagonism of 5-HT, read-out: pA2 (5-HT) (converted)) is 2.51 nM.
`COc1cc(OC)cc(C(=O)O[C@@H]2C[C@H]3CC[C@@H](C2)N3C)c1` [pseudotropyl-3,5-dimethoxybenzoate]: the Kb on 5-HT M-receptor [1] (setting [3]) is 251 nM.
